Measurements published in PMC10734772 (Turkish Journal of Chemistry, 2021).

| melting point [°C] | Structure (SMILES) |
| --- | --- |
| 89 | Cc1ccnc(Nc2cc(NC(=O)c3ccc(CN4CCN(c5ncccn5)CC4)cc3)ccc2C)n1 [Compound 5, N-(4-Methyl-3-((4-methylpyrimidin-2-yl)amino)phenyl)-4-((4-(pyrimidin-2-yl)piperazin-1-yl)methyl)benzamide] |
| 143 | Cc1ccc(NC(=O)c2ccc(CN3CCN(c4ncccn4)CC3)cc2)cc1Nc1cnccn1 [Compound 7, N-(4-Methyl-3-(pyrazin-2-ylamino)phenyl)-4-((4-(pyrimidin-2-yl)piperazin-1-yl)methyl)benzamide] |
| 157 | Cc1ccnc(Nc2cc(NC(=O)c3ccc(CN4CCOCC4)cc3)ccc2C)n1 [Compound 8, N-(4-Methyl-3-((4-methylpyrimidin-2-yl)amino)phenyl)-4-(morhpolinomethyl)benzamide] |
| 155 to 157 | Cc1ccnc(Nc2cc(NC(=O)c3ccc(CN4CCOCC4)cc3)ccc2C)c1 [Compound 9, N-(4-Methyl-3-((4-methylpyridin-2-yl)amino)phenyl)-4-(morhpolinomethyl)benzamide] |
| 87 | COc1ccc(CN2CCN(Cc3ccc(C(=O)Nc4ccc(C)c(Nc5cc(C)ccn5)c4)cc3)CC2)c(OC)c1OC [Compound 10, N-(4-Methyl-3-((4-methylpyridin-2-yl)amino)phenyl)-4-((4-(2,3,4-trimethoxybenzyl)piperazin-1-yl)methyl)benzamide] |
